Assay results from US6355799B1, “Substituted benzene compounds, process for their preparation, and herbicidal and defoliant compositions containing them” (ISK Americas Incorporated, priority 1997, dated 2002).

Key:
Format in all cases: in vivo
[1] = tested on: redroot pigweed (Amaranthus retroflexus, AMARE); assay: Pre-emerge test, greenhouse herbicide activity screening; conditions: rating scale 0-100, 14 days after application
Procedure, shortened: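 Herbicidal damage is scored 0 (none) to 100 (complete plant death) two weeks after a simulated field spray. Rates span 15–1000 g ai/ha, delivered in acetone at 187 l/ha. For post-emergence treatments, plants have 2–3 leaves and the spray carries 0.25% v/v non-ionic surfactant.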

[2] = tested on: barnyardgrass (Echinochloa crus-galli, ECHCG); assay: as above; conditions: rating scale 0-100, 14 days after application
Procedure, shortened: (§1)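 Compounds in acetone were track-sprayed at 15–1000 g ai/ha: pre-emergence onto soil sown the previous day, then top-watered to incorporate and later bottom-watered; post-emergence onto 2–3 leaf plants with 0.25% v/v surfactant, bottom-watered only. Ratings on a 0–100 phytotoxicity scale were taken at day 14.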

[3] = tested on: common ragweed (Ambrosia artemisizfolia L., AMBEL); assay: as above; conditions: rating scale 0-100, 14 days after application
Procedure, shortened: as §1

[4] = tested on: green foxtail (Setaria viridis, SETVI); assay: as above; conditions: rating scale 0-100, 14 days after application
Procedure, shortened: as §1

[5] = tested on: ivyleaf morningglory (Ipomoea hederacea, IPOHE); assay: as above; conditions: rating scale 0-100, 14 days after application
Procedure, shortened: as §1

[6] = tested on: johnsongrass (Sorghum halepense, SORHA); assay: as above; conditions: rating scale 0-100, 14 days after application
Procedure, shortened: as §1

[7] = tested on: lambsquarters (Chenopodium album, CHEAL); assay: as above; conditions: rating scale 0-100, 14 days after application
Procedure, shortened: as §1

[8] = tested on: large crabgrass (Digitaria sanguinalis, DIGSA); assay: as above; conditions: rating scale 0-100, 14 days after application
Procedure, shortened: as §1

[9] = tested on: sicklepod (Cassia obtusifolia, CASOB); assay: as above; conditions: rating scale 0-100, 14 days after application
Procedure, shortened: as §1

[10] = tested on: velvetleaf (Abutilon theophrasti, ABUTH); assay: as above; conditions: rating scale 0-100, 14 days after application
Procedure, shortened: as §1

[11] = tested on: field corn (Zea mays L., var. Dekalb 535, CORN); assay: Pre-emerge test, crop safety; conditions: rating scale 0-100, 14 days after application
Procedure, shortened: (§2)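 Plants grown in 10 cm pots of sandy loam mix received acetone-dissolved compounds through a moving flat-fan nozzle. Doses ranged from 15 to 1000 g ai/ha. Pre-emerge pots were seeded one day earlier, post-emerge pots 8–21 days earlier. Fourteen days on, each pot was graded 0–100 for damage.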

[12] = tested on: upland rice (Oryza sp., var. Tebonnet, RICE); assay: Pre-emerge test, crop safety; conditions: rating scale 0-100, 14 days after application
Procedure, shortened: as §2

[13] = tested on: barnyardgrass (Echinochloa crus-galli, ECHCG); assay: Post-emerge test, greenhouse herbicide activity screening; conditions: rating scale 0-100 (0 no damage, 100 complete death), 14 days after application
Procedure, shortened: (§3)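 Rating: 0–100 visual injury, 14 DAA. Application: acetone, 187 l/ha, 15–1000 g ai/ha, flat-fan track sprayer with nozzle 40–45 cm above soil or canopy. Post-emerge runs used 0.25% v/v surfactant on 2–3 leaf plants.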

[14] = tested on: common ragweed (Ambrosia artemisizfolia L., AMBEL); assay: as above; conditions: rating scale 0-100 (0 no damage, 100 complete death), 14 days after application
Procedure, shortened: as §3

[15] = tested on: green foxtail (Setaria viridis, SETVI); assay: as above; conditions: rating scale 0-100 (0 no damage, 100 complete death), 14 days after application
Procedure, shortened: as §3

[16] = tested on: ivyleaf morningglory (Ipomoea hederacea, IPOHE); assay: as above; conditions: rating scale 0-100 (0 no damage, 100 complete death), 14 days after application
Procedure, shortened: as §3

[17] = tested on: johnsongrass (Sorghum halepense, SORHA); assay: as above; conditions: rating scale 0-100 (0 no damage, 100 complete death), 14 days after application
Procedure, shortened: as §3

[18] = tested on: lambsquarters (Chenopodium album, CHEAL); assay: as above; conditions: rating scale 0-100 (0 no damage, 100 complete death), 14 days after application
Procedure, shortened: as §3

[19] = tested on: large crabgrass (Digitaria sanguinalis, DIGSA); assay: as above; conditions: rating scale 0-100 (0 no damage, 100 complete death), 14 days after application
Procedure, shortened: as §3

[20] = tested on: redroot pigweed (Amaranthus retroflexus, AMARE); assay: as above; conditions: rating scale 0-100 (0 no damage, 100 complete death), 14 days after application
Procedure, shortened: as §3

[21] = tested on: sicklepod (Cassia obtusifolia, CASOB); assay: as above; conditions: rating scale 0-100 (0 no damage, 100 complete death), 14 days after application
Procedure, shortened: as §3

[22] = tested on: velvetleaf (Abutilon theophrasti, ABUTH); assay: as above; conditions: rating scale 0-100 (0 no damage, 100 complete death), 14 days after application
Procedure, shortened: as §3

[23] = tested on: field corn (Zea mays L., var. Dekalb 535, CORN); assay: Post-emerge test, crop safety; conditions: rating scale 0-100 (0 no damage, 100 complete death), 14 days after application
Procedure, shortened: as §3

[24] = tested on: upland rice (Oryza sp., var. Tebonnet, RICE); assay: Post-emerge test, crop safety; conditions: rating scale 0-100 (0 no damage, 100 complete death), 14 days after application
Procedure, shortened: as §3

## CCCOC(=O)C(Cl)Cc1c(OC)c(Cl)cc(F)c1-n1c(=O)cc(C(F)(F)F)n(C)c1=O (single isomer, unassigned) [14-7]
[1]; 63 g ai/ha
  Pre-emerge herbicidal activity, phytotoxicity rating AMARE: 90
[1]; 250 g ai/ha
  Pre-emerge herbicidal activity, phytotoxicity rating AMARE: 100
[2]; 63 g ai/ha
  Pre-emerge herbicidal activity, phytotoxicity rating ECHCG: 0
[2]; 250 g ai/ha
  Pre-emerge herbicidal activity, phytotoxicity rating ECHCG: 75
[3]; 63 g ai/ha
  Pre-emerge herbicidal activity, phytotoxicity rating AMBEL: 0
[3]; 250 g ai/ha
  Pre-emerge herbicidal activity, phytotoxicity rating AMBEL: 50
[4]; 63 g ai/ha
  Pre-emerge herbicidal activity, phytotoxicity rating SETVI: 10
[4]; 250 g ai/ha
  Pre-emerge herbicidal activity, phytotoxicity rating SETVI: 90
[5]; 63 g ai/ha
  Pre-emerge herbicidal activity, phytotoxicity rating IPOHE: 0
[5]; 250 g ai/ha
  Pre-emerge herbicidal activity, phytotoxicity rating IPOHE: 0
[6]; 63 g ai/ha
  Pre-emerge herbicidal activity, phytotoxicity rating SORHA: 0
[6]; 250 g ai/ha
  Pre-emerge herbicidal activity, phytotoxicity rating SORHA: 70
[7]; 63 g ai/ha
  Pre-emerge herbicidal activity, phytotoxicity rating CHEAL: 40
[7]; 250 g ai/ha
  Pre-emerge herbicidal activity, phytotoxicity rating CHEAL: 85
[8]; 63 g ai/ha
  Pre-emerge herbicidal activity, phytotoxicity rating DIGSA: 90
[8]; 250 g ai/ha
  Pre-emerge herbicidal activity, phytotoxicity rating DIGSA: 100
[9]; 63 g ai/ha
  Pre-emerge herbicidal activity, phytotoxicity rating CASOB: 20
[9]; 250 g ai/ha
  Pre-emerge herbicidal activity, phytotoxicity rating CASOB: 0
[10]; 63 g ai/ha
  Pre-emerge herbicidal activity, phytotoxicity rating ABUTH: 100
[10]; 250 g ai/ha
  Pre-emerge herbicidal activity, phytotoxicity rating ABUTH: 100
[11]; 63 g ai/ha
  Pre-emerge phytotoxicity rating, crop damage CORN: 10
[11]; 250 g ai/ha
  Pre-emerge phytotoxicity rating, crop damage CORN: 90
[12]; 63 g ai/ha
  Pre-emerge phytotoxicity rating, crop damage RICE: 0
[12]; 250 g ai/ha
  Pre-emerge phytotoxicity rating, crop damage RICE: 40
[13]; Rate 63 g ai/ha
  Post-emerge Herbicidal Activity, phytotoxicity rating ECHCG: 100
[13]; Rate 250 g ai/ha
  Post-emerge Herbicidal Activity, phytotoxicity rating ECHCG: 100
[14]; Rate 63 g ai/ha
  Post-emerge Herbicidal Activity, phytotoxicity rating AMBEL: 50
[14]; Rate 250 g ai/ha
  Post-emerge Herbicidal Activity, phytotoxicity rating AMBEL: 90
[15]; Rate 63 g ai/ha
  Post-emerge Herbicidal Activity, phytotoxicity rating SETVI: 60
[15]; Rate 250 g ai/ha
  Post-emerge Herbicidal Activity, phytotoxicity rating SETVI: 85
[16]; Rate 63 g ai/ha
  Post-emerge Herbicidal Activity, phytotoxicity rating IPOHE: 20
[16]; Rate 250 g ai/ha
  Post-emerge Herbicidal Activity, phytotoxicity rating IPOHE: 60
[17]; Rate 63 g ai/ha
  Post-emerge Herbicidal Activity, phytotoxicity rating SORHA: 70
[17]; Rate 250 g ai/ha
  Post-emerge Herbicidal Activity, phytotoxicity rating SORHA: 90
[18]; Rate 63 g ai/ha
  Post-emerge Herbicidal Activity, phytotoxicity rating CHEAL: 90
[18]; Rate 250 g ai/ha
  Post-emerge Herbicidal Activity, phytotoxicity rating CHEAL: 99
[19]; Rate 63 g ai/ha
  Post-emerge Herbicidal Activity, phytotoxicity rating DIGSA: 80
[19]; Rate 250 g ai/ha
  Post-emerge Herbicidal Activity, phytotoxicity rating DIGSA: 100
[20]; Rate 63 g ai/ha
  Post-emerge Herbicidal Activity, phytotoxicity rating AMARE: 95
[20]; Rate 250 g ai/ha
  Post-emerge Herbicidal Activity, phytotoxicity rating AMARE: 100
[21]; Rate 63 g ai/ha
  Post-emerge Herbicidal Activity, phytotoxicity rating CASOB: 0
[21]; Rate 250 g ai/ha
  Post-emerge Herbicidal Activity, phytotoxicity rating CASOB: 20
[22]; Rate 63 g ai/ha
  Post-emerge Herbicidal Activity, phytotoxicity rating ABUTH: 50
[22]; Rate 250 g ai/ha
  Post-emerge Herbicidal Activity, phytotoxicity rating ABUTH: 100
[23]; Rate 63 g ai/ha
  Post-emerge phytotoxicity rating CORN (crop damage): 95
[23]; Rate 250 g ai/ha
  Post-emerge phytotoxicity rating CORN (crop damage): 100
[24]; Rate 63 g ai/ha
  Post-emerge phytotoxicity rating RICE (crop damage): 10
[24]; Rate 250 g ai/ha
  Post-emerge phytotoxicity rating RICE (crop damage): 25
